We go through 25 compounds from patent US9440957B2, “Compounds and compositions for modulating EGFR Activity” (Novartis AG, priority 2012, dated 2016).

Structures are written as SMILES. Like-named read-outs stand apart in the source and are kept apart here.

One experiment addresses T1, EGFR(L858R/T790M) (Homo sapiens, UniProt P00533, L858R/T790M).
T1 construct: purchased from Carna (GST-a.a. 669-1210)
Description: EGFR biochemical assay (HTRF), IC50 determinations. As for the experimental part: All EGFR biochemical assays were carried out by HTRF method. […] The substrate peptide Biotin-TK-peptide was purchased from Cis-Bio. […] All reactions were carried out at room temperature in white ProxiPlate™ 384-well Plus plates (PerkinElmer) and were quenched with 5 μL of 0.2 M EDTA at 60 min. Five L of the detection reagents (2.5 ng PT66K and 0.05 μg SAXL per well) were added, the plates were incubated at room temperature for 1 h and then read in EnVision reader. […] For no-preincubation condition, the compounds were added to the assay solution containing ATP and peptide, and the reaction was initiated by addition of enzyme. For pre-incubation conditions, the compounds were added to the assay solution containing enzyme and peptide, and pre-incubated at room temperature for desired period of time, then the reaction was initiated by addition of ATP.

Experiment [1] addresses human EGFR WT (NIH/3T3 cells, EGF-induced) (Homo sapiens, UniProt P00533). Put plainly: EGFR target modulation in engineered NIH/3T3 cell lines (phospho-EGFR Y1068 AlphaLISA), EGFR WT. Conditions: engineered NIH/3T3 cells, read-out: NIH3T3 IC50 (μM) EGFR (WT). In kind it is cell-based. The method, then: (§1) EGFR Target Modulation in Engineered NIH/3T3 Cell Lines Tissue Culture.
(§2) The cells were harvested with 0.05% Trypsin/EDTA (Hyclone #SH30236.01), re-suspended in 5% FBS/DMEM Pen/Strep without Puromycin and plated at 9,000 cells per well in 50 μl of media in a 384-well black plate with clear bottoms (Greiner #789068G). The cells were allowed to incubate overnight in a 37° C., 5% CO2 humidified tissue culture incubator. A 12-point test compound curve was prepared by serial diluting a 10 μM stock 1:3 in DMSO in a 384-well compound plate (Greiner #789201L). The serial diluted compounds were transferred to the plate containing cells by using a 50 nl Pin Head device (Perkin Elmer) and the cells were placed back in the incubator for 3 hours. Only the EGFR WT-expressing cells were induced with 50 ng/ml EGF (Preprotech #AF-100-15) for 5 minutes before lysis. […] The plates were shaken at 4° C. for 5 minutes with foil top at maximum speed. […] The plates were sealed with a foil top and frozen at −80° C. and thawed when needed.
(§3) The frozen aliquots were thawed and briefly centrifuged. All antibodies and beads were diluted in 1× AlphaLISA HiBlock Buffer (PE #AL004C). […] Goat anti-total EGFR (R&D Systems #AF231) was added and allowed to equilibrate for 1 hour at room temperature at 1 nM final concentration.
(§4) With these parameters, the IC50's for each compound in each cell line was calculated using non-linear curve fitting analysis.

Experiment [2] addresses human EGFR L858R (NIH/3T3 cells) (Homo sapiens, UniProt P00533, L858R). Description: EGFR target modulation in engineered NIH/3T3 cell lines (phospho-EGFR Y1068 AlphaLISA), EGFR L858R. The experiment is classed as cell-based. The conditions noted are these: engineered NIH/3T3 cells, read-out: NIH3T3 IC50 (μM) EGFR (L858R). As for the experimental part: as §1, §2, §3, §4

Experiment [3] deals with human EGFR L858R/T790M (NIH/3T3 cells) (Homo sapiens, UniProt P00533, L858R/T790M). Put plainly: EGFR target modulation in engineered NIH/3T3 cell lines (phospho-EGFR Y1068 AlphaLISA), EGFR L858R/T790M. In kind it is cell-based. The conditions noted are these: engineered NIH/3T3 cells, read-out: NIH3T3 IC50 (μM) EGFR (L858R/T790M). As for the experimental part:
as §1, §2, §3, §4

Where [4] appears, read: EGFR (L858R/T790M) with 90 min pre-incubation, read-out: IC50 (μM) Column B.
Where [5] appears, read: EGFR (L858R/T790M) with no pre-incubation, read-out: IC50 (μM) Column A.

Sequence of human EGFR L858R/T790M (NIH/3T3 cells) (P00533 25-1210 T790M/L858R): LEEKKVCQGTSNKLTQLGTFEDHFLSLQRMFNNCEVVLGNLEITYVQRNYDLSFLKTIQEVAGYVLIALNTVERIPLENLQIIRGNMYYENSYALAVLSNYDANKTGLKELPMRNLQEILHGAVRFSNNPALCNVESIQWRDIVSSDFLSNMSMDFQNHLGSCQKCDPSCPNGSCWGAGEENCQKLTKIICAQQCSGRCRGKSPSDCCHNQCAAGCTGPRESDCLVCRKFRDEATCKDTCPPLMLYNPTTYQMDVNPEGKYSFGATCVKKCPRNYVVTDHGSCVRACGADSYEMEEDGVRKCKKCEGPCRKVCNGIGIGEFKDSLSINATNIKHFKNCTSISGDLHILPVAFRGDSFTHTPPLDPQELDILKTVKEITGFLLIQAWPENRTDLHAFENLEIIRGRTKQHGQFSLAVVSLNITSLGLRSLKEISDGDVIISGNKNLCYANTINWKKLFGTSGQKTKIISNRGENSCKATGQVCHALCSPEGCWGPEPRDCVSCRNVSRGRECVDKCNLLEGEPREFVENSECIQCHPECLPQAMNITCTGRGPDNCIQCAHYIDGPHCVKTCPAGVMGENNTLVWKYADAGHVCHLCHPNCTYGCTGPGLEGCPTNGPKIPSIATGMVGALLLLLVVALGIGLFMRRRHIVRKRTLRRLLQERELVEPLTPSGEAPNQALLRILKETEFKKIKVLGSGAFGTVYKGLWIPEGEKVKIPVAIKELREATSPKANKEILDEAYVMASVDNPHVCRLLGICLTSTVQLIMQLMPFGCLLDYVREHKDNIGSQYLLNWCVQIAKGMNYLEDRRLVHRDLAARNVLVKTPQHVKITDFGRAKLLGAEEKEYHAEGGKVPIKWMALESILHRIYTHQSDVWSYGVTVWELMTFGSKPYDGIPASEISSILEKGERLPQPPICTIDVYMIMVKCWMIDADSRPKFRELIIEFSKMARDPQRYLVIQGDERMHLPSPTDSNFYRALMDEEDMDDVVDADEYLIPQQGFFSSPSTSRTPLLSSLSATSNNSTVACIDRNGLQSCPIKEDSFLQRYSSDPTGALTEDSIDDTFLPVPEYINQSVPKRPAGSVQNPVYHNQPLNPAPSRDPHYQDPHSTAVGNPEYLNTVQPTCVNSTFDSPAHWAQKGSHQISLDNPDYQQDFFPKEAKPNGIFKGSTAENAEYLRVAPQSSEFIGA
Sequence of human EGFR WT (NIH/3T3 cells, EGF-induced) (P00533 25-1210): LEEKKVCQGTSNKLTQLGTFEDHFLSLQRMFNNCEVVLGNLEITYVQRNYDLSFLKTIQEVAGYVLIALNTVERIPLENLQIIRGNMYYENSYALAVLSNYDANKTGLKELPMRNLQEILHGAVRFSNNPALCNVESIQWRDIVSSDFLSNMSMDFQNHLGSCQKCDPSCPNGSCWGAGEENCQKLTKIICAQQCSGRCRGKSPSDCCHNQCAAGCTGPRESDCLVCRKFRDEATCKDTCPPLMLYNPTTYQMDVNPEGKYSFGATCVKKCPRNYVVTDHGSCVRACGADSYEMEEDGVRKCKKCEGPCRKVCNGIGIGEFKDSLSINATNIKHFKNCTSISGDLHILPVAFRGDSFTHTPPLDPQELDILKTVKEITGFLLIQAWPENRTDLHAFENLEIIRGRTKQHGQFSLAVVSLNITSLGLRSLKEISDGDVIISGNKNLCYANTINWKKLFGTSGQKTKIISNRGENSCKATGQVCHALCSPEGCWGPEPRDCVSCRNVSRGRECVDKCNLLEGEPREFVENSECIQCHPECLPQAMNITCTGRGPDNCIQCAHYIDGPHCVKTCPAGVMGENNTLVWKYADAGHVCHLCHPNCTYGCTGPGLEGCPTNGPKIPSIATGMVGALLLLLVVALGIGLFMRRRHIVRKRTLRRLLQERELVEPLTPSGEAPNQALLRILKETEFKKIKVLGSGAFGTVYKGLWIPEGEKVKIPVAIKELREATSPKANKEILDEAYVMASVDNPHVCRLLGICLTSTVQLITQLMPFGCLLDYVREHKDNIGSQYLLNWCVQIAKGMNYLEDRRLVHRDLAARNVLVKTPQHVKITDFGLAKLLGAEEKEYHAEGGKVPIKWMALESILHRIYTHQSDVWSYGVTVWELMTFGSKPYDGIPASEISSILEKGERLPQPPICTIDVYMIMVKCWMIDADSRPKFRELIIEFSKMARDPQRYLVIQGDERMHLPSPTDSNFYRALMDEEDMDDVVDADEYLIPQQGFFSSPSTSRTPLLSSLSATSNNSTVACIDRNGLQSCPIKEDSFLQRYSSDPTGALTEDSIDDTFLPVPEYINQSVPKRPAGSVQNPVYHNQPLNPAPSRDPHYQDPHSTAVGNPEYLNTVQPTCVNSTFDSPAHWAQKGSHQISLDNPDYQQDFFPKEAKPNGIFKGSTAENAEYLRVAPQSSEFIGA
T1 sequence (P00533 669-1210 T790M/L858R): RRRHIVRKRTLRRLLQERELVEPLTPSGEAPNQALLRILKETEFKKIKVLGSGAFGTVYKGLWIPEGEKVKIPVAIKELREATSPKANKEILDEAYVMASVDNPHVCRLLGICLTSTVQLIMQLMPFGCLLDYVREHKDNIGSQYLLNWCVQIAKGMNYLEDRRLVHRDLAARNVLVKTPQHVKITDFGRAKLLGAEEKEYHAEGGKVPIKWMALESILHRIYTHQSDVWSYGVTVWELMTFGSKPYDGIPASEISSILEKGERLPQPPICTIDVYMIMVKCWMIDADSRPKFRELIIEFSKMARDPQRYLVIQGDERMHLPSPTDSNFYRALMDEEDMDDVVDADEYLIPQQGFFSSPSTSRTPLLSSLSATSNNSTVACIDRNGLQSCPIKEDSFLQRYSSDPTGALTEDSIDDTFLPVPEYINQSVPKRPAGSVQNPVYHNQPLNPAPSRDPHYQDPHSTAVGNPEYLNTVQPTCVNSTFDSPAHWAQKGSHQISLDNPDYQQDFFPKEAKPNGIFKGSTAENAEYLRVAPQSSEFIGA
Sequence of human EGFR L858R (NIH/3T3 cells) (P00533 25-1210 L858R): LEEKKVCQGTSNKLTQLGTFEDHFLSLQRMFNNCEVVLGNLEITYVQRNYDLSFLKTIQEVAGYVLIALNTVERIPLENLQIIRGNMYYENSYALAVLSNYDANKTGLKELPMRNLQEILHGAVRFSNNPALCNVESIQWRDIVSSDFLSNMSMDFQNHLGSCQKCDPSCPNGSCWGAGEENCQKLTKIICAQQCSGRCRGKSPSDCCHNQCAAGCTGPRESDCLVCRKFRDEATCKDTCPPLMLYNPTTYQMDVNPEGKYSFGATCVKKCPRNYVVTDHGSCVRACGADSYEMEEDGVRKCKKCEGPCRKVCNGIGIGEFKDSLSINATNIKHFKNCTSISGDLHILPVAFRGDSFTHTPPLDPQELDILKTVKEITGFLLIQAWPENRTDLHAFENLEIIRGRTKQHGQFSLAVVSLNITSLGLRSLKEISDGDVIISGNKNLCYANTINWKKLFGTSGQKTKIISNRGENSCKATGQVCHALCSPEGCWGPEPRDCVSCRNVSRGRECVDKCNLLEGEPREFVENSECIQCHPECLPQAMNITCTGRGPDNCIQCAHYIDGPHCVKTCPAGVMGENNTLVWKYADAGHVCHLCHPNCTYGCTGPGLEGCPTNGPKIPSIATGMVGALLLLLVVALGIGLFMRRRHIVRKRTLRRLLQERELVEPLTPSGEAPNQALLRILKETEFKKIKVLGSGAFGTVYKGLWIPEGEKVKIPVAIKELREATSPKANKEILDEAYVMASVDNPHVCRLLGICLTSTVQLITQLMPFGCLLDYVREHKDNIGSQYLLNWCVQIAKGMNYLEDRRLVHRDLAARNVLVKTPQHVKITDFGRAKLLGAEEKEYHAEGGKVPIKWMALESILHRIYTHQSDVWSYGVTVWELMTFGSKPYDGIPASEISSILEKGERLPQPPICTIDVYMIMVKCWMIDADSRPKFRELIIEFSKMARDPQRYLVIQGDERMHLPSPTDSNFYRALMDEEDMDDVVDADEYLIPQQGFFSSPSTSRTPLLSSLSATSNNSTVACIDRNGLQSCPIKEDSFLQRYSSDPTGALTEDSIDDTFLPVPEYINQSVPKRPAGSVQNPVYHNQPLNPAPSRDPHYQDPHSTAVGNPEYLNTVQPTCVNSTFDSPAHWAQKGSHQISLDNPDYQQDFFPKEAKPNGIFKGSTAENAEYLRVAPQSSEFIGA

Take `C=CC(=O)N1CCCC[C@@H](n2c(NC(=O)c3cccc(C(F)(F)F)c3)nc3cccc(Cl)c32)C1` [Example 17-18]: the IC50 at EGFR(L858R/T790M) (setting [4]) is < 0.001 µM; on EGFR(L858R/T790M) (setting [5]), 0.014 µM; in experiment [1] it was 2.48 µM; in experiment [2], 0.02 µM; in experiment [3], 0.004 µM.
The matching figures for `C=CC(=O)N1CCCC[C@@H](n2c(NC(=O)c3cccc(C(F)(F)F)c3)nc3ccccc32)C1` [Example 17-13]: < 0.001 µM, 0.006 µM, 0.43 µM, 0.008 µM and 0.001 µM.
The matching figures for `CN(C)C/C=C/C(=O)N1CCC[C@@H](n2c(NC(=O)c3cccc(C(F)(F)F)c3)nc3cc(CO)ccc32)C1` [Example 17-143]: 0.014 µM, 0.233 µM, > 10 µM, 0.313 µM and 0.046 µM.
The matching figures for `Cc1cccc2nc(NC(=O)c3ccnc(C(C)(C)C)c3)n(C3CCCCN(C(=O)/C=C/CN(C)C)C3)c12` (centres unmarked) [Example 17-61]: < 0.001 µM, 0.004 µM, 0.011 µM, < 0.001 µM and 0.003 µM.
As for `C=CC(=O)N1CCCC(n2c(NC(=O)c3cccc(C(F)(F)F)c3)nc3c2CN(S(C)(=O)=O)CC3)C1` (centres unmarked) [Example 17-171], the IC50 at EGFR(L858R/T790M) (setting [4]) turned out to be 0.316 µM; at EGFR(L858R/T790M) (setting [5]) it was 2.4 µM; in experiment [1] it was 9.9 µM; in experiment [2] it was 1.86 µM; in experiment [3] it was 0.16 µM.
As for `Cc1cccc2nc(NC(=O)c3ccccn3)n(C3CCCCN(C(=O)/C=C/CN(C)C)C3)c12` (centres unmarked) [Example 17-34], the IC50 was 0.038 µM on EGFR(L858R/T790M) (setting [4]); 1.05 µM on EGFR(L858R/T790M) (setting [5]); > 10 µM in experiment [1]; 0.53 µM in experiment [2]; 0.221 µM in experiment [3].
Take `C=CC(=O)N1CCCCC(n2c(NC(=O)c3ccccc3)nc3cccc(C(=O)N4CCS(=O)(=O)CC4)c32)C1` (centres unmarked) [Example 17-115]: the IC50 is 0.013 µM on EGFR(L858R/T790M) (setting [4]); 3.5 µM on EGFR(L858R/T790M) (setting [5]); > 10 µM in experiment [1]; 1.6 µM in experiment [2]; 0.165 µM in experiment [3].
On to `C=CC(=O)N1CCCC(n2c(NC(=O)c3cccc(C(F)(F)F)c3)nc3c2CN(C)CC3)C1` (centres unmarked) [Example 17-173], for which the IC50 was 0.285 µM on EGFR(L858R/T790M) (setting [4]); 6.6 µM on EGFR(L858R/T790M) (setting [5]); > 10 µM in experiment [1]; 0.67 µM in experiment [2]; 0.84 µM in experiment [3].
In the case of `CN(C)C/C=C/C(=O)N1CCCCC(n2c(NC(=O)c3cccc(C(F)(F)F)c3)nc3cc(CO)cc(C#N)c32)C1` (centres unmarked) [Example 17-116], the IC50 is < 0.001 µM at EGFR(L858R/T790M) (setting [4]); 0.011 µM at EGFR(L858R/T790M) (setting [5]); 0.47 µM in experiment [1]; 0.019 µM in experiment [2]; 0.008 µM in experiment [3].
The matching figures for `C=CC(=O)N1CCCCC(n2c(NC(=O)c3ccccc3)nc3cccc(C(=O)NCC(=O)OC)c32)C1` (centres unmarked) [Example 17-135]: 0.008 µM, 0.62 µM, > 10 µM, 0.4 µM and 0.045 µM.
The matching figures for `C=CC(=O)N1CCCCC(n2c(NC(=O)c3ccccc3)nc3cccc(C(=O)NCC(=O)O)c32)C1` (centres unmarked) [Example 17-137]: 0.044 µM, 1.55 µM, > 10 µM, > 10 µM and 7.9 µM.
The matching figures for `Cc1cccc2nc(NC(=O)c3cccc(Cl)c3F)n(C3CCCCN(C(=O)/C=C/CN(C)C)C3)c12` (centres unmarked) [Example 17-31]: < 0.001 µM, 0.016 µM, 0.75 µM, 0.019 µM and 0.005 µM.
On to `Cc1cccc2nc(NC(=O)c3cnccn3)n(C3CCCCN(C(=O)/C=C/CN(C)C)C3)c12` (centres unmarked) [Example 17-38], for which the IC50 came out at 0.006 µM on EGFR(L858R/T790M) (setting [4]); 0.117 µM on EGFR(L858R/T790M) (setting [5]); 1.92 µM in experiment [1]; 0.093 µM in experiment [2]; 0.049 µM in experiment [3].
The matching figures for `C=CC(=O)N1CCC[C@@H](n2c(NC(=O)c3cccc(C(F)(F)F)c3)nc3cc(CN4C[C@@H](O)[C@H](O)C4)ccc32)C1` [Example 17-120]: 0.028 µM, 0.69 µM, > 10 µM, 8.2 µM and 0.86 µM.
The matching figures for `C=CC(=O)N1CCC[C@@H](n2c(NC(=O)c3cccc(C(F)(F)F)c3)nc3cc(CO)ccc32)C1` [Example 17-121]: < 0.001 µM, 0.127 µM, > 10 µM, 0.259 µM and 0.016 µM.
The matching figures for `Cc1cccc2nc(NC(=O)c3ccnc(C(F)(F)F)c3)n([C@H]3CCCCN(C(=O)/C=C/CN(C)C)C3)c12` (single isomer, unassigned) [Example 21-1]: 0.012 µM, 0.171 µM, > 10 µM, 2.23 µM and 0.12 µM.
Turning to `C/C=C/C(=O)N1CCCCC(n2c(NC(=O)c3cccc(C(F)(F)F)c3)nc3cccc(C)c32)C1` (centres unmarked) [Example 17-20], the IC50 at EGFR(L858R/T790M) (setting [4]) was 0.032 µM; on EGFR(L858R/T790M) (setting [5]) it was 0.43 µM; in experiment [1] it was > 10 µM; in experiment [2], 0.75 µM; in experiment [3], 0.073 µM.
`Cc1cccc2nc(NC(=O)c3ccc(F)c(Cl)c3F)n(C3CCCCN(C(=O)/C=C/CN(C)C)C3)c12` (centres unmarked) [Example 17-32]: the IC50 on EGFR(L858R/T790M) (setting [4]) was < 0.001 µM; on EGFR(L858R/T790M) (setting [5]) it was 0.014 µM; in experiment [1] it was 0.206 µM; in experiment [2] it was 0.007 µM; in experiment [3] it was 0.004 µM.
The matching figures for `C=CC(=O)N1CCCC(n2c(NC(=O)c3cccc(C(F)(F)F)c3)nc3c2CN(C(C)=O)CC3)C1` (centres unmarked) [Example 17-172]: 0.268 µM, 1.75 µM, 8.7 µM, 1.4 µM and 0.173 µM.
The matching figures for `C=C(CN1CCCC1)C(=O)N1CCCC[C@@H](n2c(NC(=O)c3ccnnc3)nc3cccc(C)c32)C1` [Example 17-91]: 0.007 µM, 0.198 µM, 1.01 µM, 0.033 µM and 0.042 µM.
The matching figures for `C=CC(=O)N1CCCC[C@@H](n2c(NC(=O)c3cccc(C(F)(F)F)c3)nc3cccc(C(=O)OC)c32)C1` [Example 17-96]: 0.011 µM, 0.106 µM, 1.98 µM, 0.016 µM and 0.004 µM.
Regarding `Cc1cccc2nc(NC(=O)c3ccnc(N(C)C)c3)n(C3CCCCN(C(=O)/C=C/CN(C)C)C3)c12` (centres unmarked) [Example 17-50], the IC50 is < 0.001 µM at EGFR(L858R/T790M) (setting [4]); 0.009 µM on EGFR(L858R/T790M) (setting [5]); 0.086 µM in experiment [1]; 0.005 µM in experiment [2]; 0.009 µM in experiment [3].
In the case of `Cc1cccc2nc(NC(=O)c3ccccc3F)n(C3CCCCN(C(=O)/C=C/CN(C)C)C3)c12` (centres unmarked) [Example 17-3], the IC50 at EGFR(L858R/T790M) (setting [4]) is < 0.001 µM; at EGFR(L858R/T790M) (setting [5]), 0.026 µM; in experiment [1] it was 0.86 µM; in experiment [2] it was 0.034 µM; in experiment [3] it was 0.015 µM.
The matching figures for `Cc1cccc2nc(NC(=O)c3cccc(C(F)(F)F)c3)n([C@@H]3COCCN(C(=O)/C=C/CN(C)C)C3)c12` [Example 17-7]: < 0.001 µM, 0.005 µM, 0.55 µM, 0.015 µM and 0.003 µM.
The matching figures for `C=CC(=O)N1CCC[C@@H](n2c(NC(=O)c3cccc(C(F)(F)F)c3)nc3cc(C(=O)OC)ccc32)C1` [Example 17-110]: 0.119 µM, 10.8 µM, > 10 µM, 4.7 µM and 0.46 µM.
